Four molecules from patent publication US9169217B2, “Arylalkyl esters of 4-amino-6-(substituted phenyl)-picolinates and 6-amino-2-(substituted phenyl)-pyrimidinecarboxylates and their use as selective herbicides for crops” (Dow AgroSciences LLC, priority 2011, dated 2015) can be followed below.

Where two headings read alike, the source gives them in different places.

Holding throughout (assay type): in vivo
The test system of experiment [1] is Scirpus juncoides ROXB. (Japanese bulrush). In words: Postemergence foliar-applied herbicidal activity in direct seeded rice (Example 16). To be noted: Schoenoplectiella juncoides, post-emergence, 504 h, read-out: Visual Injury (%) SCPJU. An outline of the steps: (§1)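 Greenhouse plants at 2nd–3rd true leaf stage (10–17 d, ~29/26 °C, 14-h photoperiod) sprayed postemergence with ester forms in acetone–DMSO plus 1.25% crop oil concentrate at 187 L/ha. Visual injury scored 0–100% versus untreated plants after 3 weeks; GR50/GR80 derived by probit analysis.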

Experiment [2] deals with Polygonum pensylvanicum L. (Pennsylvania smartweed). The experiment is described as above. To be noted: POLPY, probit analysis; for GR50: 50% growth reduction; for GR80: 80% growth reduction; for GR90: 90% growth reduction. An outline of the steps: as §1
For experiment [3], the system named is Kochia scoparia (Kochia). In words: Postemergence herbicidal activity in cereal crops (Example 14). To be noted: wheat cropping systems, postemergence spray, 35 g ae/ha, 21 DAA. How it is done:
(§2) Seeds of the desired test plant species were planted in Sun Gro Metro-Mix® 360 planting mixture, which typically has a pH of 6.0 to 6.8 and an organic matter content of about 30 percent, in plastic pots with a surface area of 84.6 cm^2. When required to ensure good germination and healthy plants, a fungicide treatment and/or other chemical or physical treatment was applied. The plants were grown for 7-36 d in a greenhouse with an approximate 14 h photoperiod which was maintained at about 18° C. during the day and 17° C. during the night. Nutrients and water were added on a regular basis and supplemental lighting was provided with overhead metal halide 1000-Watt lamps as necessary. The plants were employed for testing when they reached the second or third true leaf stage.
(§3) Treatments consisted of esters of compounds 33, 34, 39, 40 and 42 and B, F, G and H. Compound B is methyl 4-amino-3-chloro-6-(4-cyclopropylphenyl)-5-fluoropicolinate; compound F is methyl 6-amino-2-(4-chloro-2-fluoro-3-methoxyphenyl)-5-methoxypyrimidine-4-carboxylate; compound G is methyl 4-amino-3-chloro-6-(4-chloro-2-fluoro-3-methoxyphenyl)picolinate; and compound H is methyl 4-amino-3-chloro-6-(4-chloro-2-fluoro-3-(1-fluoroethyl)phenyl)-5-fluoropicolinate. A weighed amount, determined by the highest rate to be tested, of each test compound was placed in a 25 mL glass vial and was dissolved in 8 mL of a 97:3 v/v mixture of acetone and DMSO to obtain concentrated stock solutions. […] The concentrated stock solutions obtained were diluted with 16 mL of an aqueous mixture containing acetone, water, isopropyl alcohol, DMSO, Agri-dex crop oil concentrate, and Triton® X-77 surfactant in a 64.7:26.0:6.7:2.0:0.7:0.01 v/v ratio to obtain spray solutions containing the highest application rates. Additional application rates were obtained by serial dilution of 12 mL of the high rate solution into a solution containing 4 mL of a 97:3 v/v mixture of acetone and DMSO and 8 mL of an aqueous mixture containing acetone, water, isopropyl alcohol, DMSO, Agri-dex crop oil concentrate, and Triton® X-77 surfactant in a 48.5:39.0:10.0:1.5:1.0:0.02 v/v ratio to obtain ½×, ¼×, ⅛× and 1/16× rates of the high rate. Compound requirements are based upon a 12 mL application volume at a rate of 187 L/ha. Formulated compounds were applied to the plant material with an overhead Mandel track sprayer equipped with 8002E nozzles calibrated to deliver 187 L/ha over an application area of 0.503 m^2 at a spray height of 18 inches (43 cm) above average plant canopy height. Control plants were sprayed in the same manner with the blank.
(§4) The treated plants and control plants were placed in a greenhouse as described above and watered by sub-irrigation to prevent wash-off of the test compounds. After 20-22 d, the condition of the test plants as compared with that of the untreated plants was determined visually and scored on a scale of 0 to 100 percent where 0 corresponds to no injury and 100 corresponds to complete kill.

Experiment [4] deals with Cirsium arvense (Thistle, Canada). Described as above. As to conditions: wheat cropping systems, postemergence spray, 21 DAA. How it is done: as §2, §3, §4
Experiment [5] has as its system Salsola kali (Thistle, Russian). The experiment is described as above. To be noted: wheat cropping systems, postemergence spray, 35 g ae/ha, 21 DAA. How it is done: as §2, §3, §4

In the case of `COc1c(Cl)ccc(-c2nc(C(=O)OCc3ccccc3)c(Cl)c(N)c2F)c1F` [Compound 1, benzyl 4-amino-3-chloro-6-(4-chloro-2-fluoro-3-methoxyphenyl)-5-fluoropicolinate], the pest or weed control at 8.75 g/ha in experiment [1] was determined as 93%. Besides, in experiment [2], the GR50 was under 8.75 g ae/ha, the GR80 worked out at 19.7 g ae/ha and the GR90 turned out to be 46.7 g ae/ha.
For `COc1c(Cl)ccc(-c2cc(N)c(Cl)c(C(=O)OCc3ccccc3)n2)c1F` [Compound 39], in experiment [3], the “Visual Injury (%) KCHSC” value was determined as 95%. In addition, the “Visual Injury (%) CIRAR” value in experiment [4] (8.75 g ae/ha) is 90%; in experiment [4] (17.5 g ae/ha), 95%. In experiment [5], the “Visual Injury (%) SASKR” value is 90%.
With `COC(=O)c1nc(-c2ccc(Cl)c(OC)c2F)c(F)c(N)c1Cl` [E, methyl 4-amino-3-chloro-6-(4-chloro-2-fluoro-3-methoxyphenyl)-5-fluoropicolinate, reference compound], the pest or weed control at 8.75 g/ha in experiment [1] (rice cropping systems, foliar-applied, 8.75 g ae/ha, 21 DAA, may represent multiple trials) is 61%. Also, in experiment [2], the GR50 turned out to be 30.7 g ae/ha, the GR80 is over 70 g ae/ha and the GR90 is given as over 70 g ae/ha.
For the molecule `COC(=O)c1nc(-c2ccc(Cl)c(OC)c2F)cc(N)c1Cl` [Compound G, methyl 4-amino-3-chloro-6-(4-chloro-2-fluoro-3-methoxyphenyl)picolinate, reference compound], the “Visual Injury (%) KCHSC” value in experiment [3] stood at 87%. For the same molecule, the “Visual Injury (%) CIRAR” value stood at 70% in experiment [4] (8.75 g ae/ha) and 80% in experiment [4] (17.5 g ae/ha). The “Visual Injury (%) SASKR” value in experiment [5] was determined as 80%.
